Measured values as given in PubChem BioAssay AID1259375 (The Scripps Research Institute Molecular Screening Center, 2018).
The source made the active and inactive calls. No rule for the calls is given here.

Biological target: Microphthalmia-associated transcription factor (Homo sapiens) (UniProt O75030)
Assay: MITF inhibitors by FRET titration, dose response, biochemical, high throughput (AID 1259375);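 also: FRET between CFP-tagged and YFP-tagged MITF protein partners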
Conditions: FRET biochemical assay, MITF inhibition

Microphthalmia-associated transcription factor (Homo sapiens), sequence (O75030 whole entry, looked up): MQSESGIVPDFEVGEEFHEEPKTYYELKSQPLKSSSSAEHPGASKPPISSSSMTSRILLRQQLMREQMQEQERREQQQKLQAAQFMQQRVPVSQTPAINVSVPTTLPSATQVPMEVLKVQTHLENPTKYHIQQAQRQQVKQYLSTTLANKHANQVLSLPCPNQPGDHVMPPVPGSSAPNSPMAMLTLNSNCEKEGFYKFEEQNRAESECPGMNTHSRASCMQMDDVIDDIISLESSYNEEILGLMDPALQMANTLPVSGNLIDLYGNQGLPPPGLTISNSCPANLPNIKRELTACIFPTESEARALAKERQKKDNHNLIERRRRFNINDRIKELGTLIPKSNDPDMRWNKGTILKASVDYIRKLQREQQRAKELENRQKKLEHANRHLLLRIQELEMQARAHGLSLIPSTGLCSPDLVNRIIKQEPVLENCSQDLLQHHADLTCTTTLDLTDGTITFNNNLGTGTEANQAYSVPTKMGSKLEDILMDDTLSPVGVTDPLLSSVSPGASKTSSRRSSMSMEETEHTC

Row | Compound | IC50
1 | C/C(=N\NC(=O)CC1=NNC(=O)C1)c1ccco1 | > 6.48 µM (inactive)
2 | O=C1N[C@@H](CSCc2ccccc2)C(=O)N2CCN(C(=O)NCc3ccccc3)C[C@H]12 | > 6.48 µM (inactive)
3 | Cc1cccc(C(=O)Nc2c3c(nn2-c2ccc(F)cc2)CSC3)c1 | > 5.53 µM (inactive)
4 | C=CCNCCOCCOc1ccc(OCC)cc1 | > 6.48 µM (inactive)
5 | CN1CCN(CCNC(=O)c2cccc(CN(C(=O)c3nc4ccc(-c5cn[nH]c5)cc4s3)C3CC3)c2)CC1 | > 6.48 µM (inactive)
6 | O=C(COC(=O)c1cc(-c2ccco2)nc2ccccc12)NC1CC1 | > 6.94 µM (inactive)
7 | CC[C@@H]1NC(=O)[C@H]2CN(C(=O)NCc3ccccc3)CCN2C1=O | > 6.48 µM (inactive)
8 | COc1cc(N2CCOCC2)ccc1Nc1cc(Nc2ccccc2-n2cccn2)c(C(F)(F)F)cn1 | > 6.48 µM (inactive)
9 | COc1ccc(CCNC(=O)CN2CCN(Cc3nc(-c4ccco4)cs3)CC2)cc1OC | > 6.48 µM (inactive)
10 | O=C(/C=C/c1ccco1)Nc1c[nH]c(=O)[nH]c1=O | > 6.48 µM (inactive)
11 | Nc1cccc(N2C(=O)c3cc(S(=O)O)cc4c(N)c(S(=O)O)cc(c34)C2=O)c1 | > 6.48 µM (inactive)
12 | N#Cc1cc([N+](=O)[O-])ccc1NC(=O)COC(=O)c1cc(-c2ccco2)nc2ccccc12 | > 7.03 µM (inactive)
13 | O=C(c1ccncc1)N1CCN(Cc2ccccc2[N+](=O)[O-])CC1 | > 6.13 µM (inactive)
14 | CCS(=O)(=O)NCC(c1cccs1)S(=O)(=O)c1ccc(C)cc1 (stereo unspecified) | > 6.6 µM (inactive)
15 | NC(=O)COC(=O)/C=C/c1ccc(I)o1 | > 7.27 µM (inactive)
16 | O=C(Cn1cc(C(=O)c2ccco2)c2ccccc21)NCc1cccnc1 | > 6.48 µM (inactive)
17 | CC(=C/C(=O)O)/C=C/c1ccoc1 | > 9.75 µM (inactive)
18 | O=C(O)c1cc(C(=O)O)cc(-c2ccc(/C=N\n3cnnc3)o2)c1 | > 6.48 µM (inactive)
19 | O=C1N[C@@H](Cc2ccccc2)C(=O)N2CCN(C(=O)NC3CCCCC3)C[C@H]12 | > 6.48 µM (inactive)
20 | CC(C)NC(=O)/C(C#N)=C/c1ccc(-c2ccc([N+](=O)[O-])cc2Br)o1 | > 7.06 µM (inactive)
21 | Nc1cc(Br)cnc1N | > 8.62 µM (inactive)
22 | CCC(C)c1ccccc1OCCNCCN(C)C (stereo unspecified) | > 6.48 µM (inactive)
23 | N/C(=N\[N+](=O)[O-])N/N=C\c1ccc(-c2ccc(O)c(C(=O)O)c2)o1 | 4.95 µM
24 | O=C(CCCCC1SCC2NC(=O)NC21)NC1(c2ccc(F)cc2)CCCC1 (stereo unspecified) | > 6.48 µM (inactive)

Row | Compound | IC50
25 | O=C(O)C1CC=CCC1C(=O)Nc1nncs1 (stereo unspecified) | > 6.48 µM (inactive)
26 | O=C(NNC(=S)Nc1ccccc1)C(=O)NNC(=S)Nc1ccccc1 | > 6.67 µM (inactive)
27 | O=C(O)c1cccc(-n2cccc2/C=C\[N+](=O)[O-])c1 | > 6.48 µM (inactive)
28 | Cn1c(SCc2cc(=O)n3c(n2)sc2ccccc23)nnc1C(F)(F)F | > 7.18 µM (inactive)
29 | CNC(=O)Nc1ccc2nc(-c3ccco3)c(-c3ccco3)nc2c1 | > 6.48 µM (inactive)
30 | Oc1ccc2c(c1)C1CCCC1(N1CCOCC1)O2 (stereo unspecified) | > 6.48 µM (inactive)
31 | Nc1ccc(C(=O)O)c(O)c1 | 1.96 µM
32 | COCCCNC(=O)/C(C#N)=C/c1ccc(OCC(=O)O)c(OC)c1 | > 6.48 µM (inactive)
33 | CC[C@H](C)[C@@H]1NC(=O)[C@H]2CN(C(=O)Nc3cccc(F)c3)CCN2C1=O | > 6.48 µM (inactive)
34 | CN1C(=O)[C@H]2CN(C(=O)NC3CCCCC3)CCN2C(=O)[C@@H]1Cc1ccccc1 | > 6.48 µM (inactive)
35 | CC(C)N(C(=O)COC(=O)c1cc(-c2ccco2)nc2ccccc12)C(C)C | > 6.82 µM (inactive)
36 | CCN(C(=O)C1COc2ccccc2O1)C12CC3CC(CC(C3)C1)C2 (stereo unspecified) | > 6.83 µM (inactive)
37 | CCC(C)C(=O)NCc1nnc2n1CCN(C/C=C/c1ccco1)CC2 (stereo unspecified) | > 6.48 µM (inactive)
38 | CCc1ccc(CN2CCN(C(C)C)CC2)cc1 | > 6.89 µM (inactive)
39 | Cc1noc(C2CN(C(=O)c3ccc(-n4cccc4)cc3)C2)n1 | > 6.48 µM (inactive)
40 | O=C1N[C@H](Cc2ccc(O)cc2)C(=O)N2CCN(C(=O)NC3CCCCC3)C[C@H]12 | > 6.48 µM (inactive)
41 | O=C(O)c1ccc(CS(=O)(=O)c2ccccc2)o1 | > 6.48 µM (inactive)
42 | O=C1Nc2c(C(=O)O)cccc2C1=O | > 7.92 µM (inactive)
43 | N#C/C(=C(/O)COC(=O)c1cc2c(s1)CCC2)c1nc2ccccc2[nH]1 | > 7.1 µM (inactive)
44 | O=C(/C=C/c1ccco1)NCCCCNC(=O)/C=C/c1ccco1 | > 6.48 µM (inactive)
45 | Cc1cc2c(c(=O)[nH]1)C(=O)O/C2=C\c1ccco1 | inactive
46 | NC1(C(Cl)(Cl)Cl)Oc2ccccc2O1 | > 6.48 µM (inactive)
47 | O=C(COC(=O)/C=C/c1ccco1)COC(=O)/C=C/c1ccco1 | > 7.07 µM (inactive)
48 | O=C(Nc1ccc(Cl)cc1Cl)N1CCN2C(=O)[C@@H]3CSCN3C(=O)[C@H]2C1 | > 6.48 µM (inactive)

Row | Compound | IC50
49 | CN1CCN(C(=O)c2ccc(-c3nc(Nc4ccccc4)c4ncn(C5CCCCC5)c4n3)cc2)CC1 | > 7.63 µM (inactive)
50 | C=CCc1cc(Cl)ccc1OCCOCCNCCOC | > 6.48 µM (inactive)
51 | COC(C)(C)CNC(=O)C1CCN(C2CCN(Cc3cccc(C)n3)CC2)CC1 | > 6.48 µM (inactive)
52 | O=C1N[C@@H](COCc2ccccc2)C(=O)N2CCN(C(=O)NCc3ccccc3)C[C@H]12 | > 6.48 µM (inactive)
53 | COC(=O)CCc1cc2c(C)cc(=O)oc2cc1OCc1ccc(C)cc1 | > 6.48 µM (inactive)
54 | CN(CCc1ccccn1)Cc1ccc(F)cc1 | > 6.59 µM (inactive)
55 | O=C(Nc1ccc(-c2ccncc2)c(C(F)(F)F)c1)C1COc2ccccc2O1 (stereo unspecified) | > 6.48 µM (inactive)
56 | NC(=O)NC(=O)COC(=O)c1c2c(nc3ccccc13)/C(=C\c1ccco1)CCC2 | > 7.04 µM (inactive)
57 | O=C(O)c1cc(S(=O)(=O)Nc2ccc(-n3cnnn3)cc2)ccc1O | > 7.18 µM (inactive)
58 | COCCCNC(=O)/C(C#N)=C/c1ccc(-c2ccc(C(=O)O)c(Cl)c2)o1 | > 6.48 µM (inactive)
59 | COc1ccc(CN2CCN(Cc3cccc(Cl)c3)CC2)cc1Br | > 6.11 µM (inactive)
60 | NC(=O)c1cccc(-c2cccs2)c1 | > 6.74 µM (inactive)
61 | COc1cc2cc3c(N)c(C(=O)Nc4sc(C)c(C)c4C#N)sc3nc2cc1OC | > 6.48 µM (inactive)
62 | O=C(O)CCC(NCc1ccco1)C(=O)O (stereo unspecified) | > 6.85 µM (inactive)
63 | C[C@H]1C(=O)N2CCN(C(=O)NCc3ccccc3)C[C@@H]2C(=O)N1C | > 6.48 µM (inactive)
64 | O=P(O)(O)C(Cl)(Cl)P(=O)(O)O | > 6.48 µM (inactive)
65 | COC(=O)CSc1nnc(-c2cnccn2)n1C | > 6.48 µM (inactive)
66 | O=C(/C=C/c1ccco1)ON1C(=O)c2ccccc2C1=O | > 6.48 µM (inactive)
67 | NC(=O)c1cc(NC(=O)COC(=O)COc2cccc(C(F)(F)F)c2)cc(C(N)=O)c1 | > 6.49 µM (inactive)
68 | CCOC(=O)C1C2NC(=S)N(CC)C1(C)Oc1ccc(Cl)cc12 (stereo unspecified) | > 8.6 µM (inactive)
69 | N#CC(C#N)=Cc1cccn1-c1ccc(C(=O)O)cc1 | > 6.48 µM (inactive)
70 | C/C=C\C1=C(C(=O)O)N2C(=O)C(NC(=O)C(N)c3ccc(O)cc3)C2SC1 (stereo unspecified) | > 6.48 µM (inactive)
71 | N#CC1=c2/c(=C/c3ccco3)c(N)c(C#N)n2C(=O)C(c2ccco2)S1 (stereo unspecified) | 2.64 µM
72 | O=C(/C=C/c1ccco1)NC(=S)Nc1cccc(C(=O)O)c1 | > 6.48 µM (inactive)

Row | Compound | IC50
73 | CCOC(=O)C1C2NC(=S)N(c3ccccc3)C1(C)Oc1cc(OC)ccc12 (stereo unspecified) | > 6.4 µM (inactive)
74 | O=C(/C=C/c1ccco1)NCc1cccc(CNC(=O)/C=C/c2ccco2)c1 | > 6.48 µM (inactive)
75 | Cc1ccc(-c2ncn(-c3ccc(Nc4cc(-n5cnc(Nc6ccccc6)n5)c(F)cn4)cc3)n2)cn1 | > 6.48 µM (inactive)
76 | CN1CC(=O)N2CCN(C(=O)NC3CCCCC3)C[C@@H]2C1=O | > 6.48 µM (inactive)
77 | Clc1ccc2c(c1)CC(c1nc(Nc3cncnc3)c3ccccc3n1)CO2 (stereo unspecified) | > 6.48 µM (inactive)
78 | O=C(OC1CCOC1=O)c1ccc(S(=O)(=O)NCc2ccco2)cc1 (stereo unspecified) | > 7.1 µM (inactive)
79 | C=CCNC(=O)COC(=O)c1cc(-c2ccco2)nc2ccccc12 | > 6.94 µM (inactive)
80 | O=C(NCCc1ccc(O)cc1)c1ccnc(-c2cccs2)c1 | > 6.77 µM (inactive)
81 | O=C(O)c1ccc(O)c(C=Nc2ccc(N=Cc3cc(C(=O)O)ccc3O)cc2)c1 | > 6.48 µM (inactive)
82 | COc1ccc(C[C@@H]2NC(=O)[C@H]3CN(C(=O)NC4CCCCC4)CCN3C2=O)cc1 | > 6.48 µM (inactive)
83 | Clc1ccc(CN2CCN(Cc3c[nH]c4ccccc34)CC2)cc1 | > 5.86 µM (inactive)
84 | COc1ccc2c(c1)CC(C(=O)Nc1ccc(-c3cn[nH]c3)cc1OCC(N)=O)CO2 (stereo unspecified) | > 6.48 µM (inactive)
85 | COc1ccc(OC)c(NC(=O)c2cc3ccc(O)cc3oc2=Nc2ccc(C(=O)O)cc2)c1 | > 5.54 µM (inactive)
86 | C[C@@H](O)[C@@H]1NC(=O)[C@H]2CN(C(=O)NC3CCCCC3)CCN2C1=O | > 6.48 µM (inactive)
87 | CCN(CC)C(=S)NC(=O)/C=C/c1ccco1 | > 6.48 µM (inactive)
88 | O=C(O)c1ccc(NC2OC(CO)C(O)C2O)cc1 (stereo unspecified) | > 5.62 µM (inactive)
89 | CN(Cc1ccco1)S(=O)(=O)c1ccc2[nH]cc(C(=O)O)c(=O)c2c1 | > 6.48 µM (inactive)
90 | CCOC(=O)N1CCC(NC(=O)CCc2nc(C3=CCN(C)CC3)no2)CC1 | > 6.48 µM (inactive)
91 | COC(=O)CN(CCN(CC(=O)O)CC(=O)OC)CC(=O)O | > 5.37 µM (inactive)
92 | O=C1NC(=S)N/C1=C\c1ccc([N+](=O)[O-])o1 | > 7.74 µM (inactive)
93 | CN(c1cccc(NS(=O)(=O)c2ccc([N+](=O)[O-])cc2)c1)S(C)(=O)=O | > 6.48 µM (inactive)
94 | CN1C(=O)[C@H]2CN(C(=O)NCc3ccccc3)CCN2C(=O)[C@@H]1Cc1ccccc1 | > 6.48 µM (inactive)
95 | CN(C)[C@@H]1C(=O)C(C(N)=O)=C(O)[C@@]2(O)C(=O)C3=C(O)c4c(O)cccc4[C@@](C)(O)[C@H]3[C@H](O)[C@@H]12 | 4.11 µM
96 | Cc1ccc(-c2nnc3s/c(=C\c4ccco4)c(=O)n23)cc1 | > 6.48 µM (inactive)
